In general, inhibition refers to the share of the control response that was lost under treatment.

The results in this text go back to US6127360A, “Diamine derivatives and pharmaceutical containing the same” (Kowa Co., Ltd., priority 1997, dated 2000).

Each structure is given as a SMILES string.

Data set [1] deals with T1, isolated guinea pig ileum (Cavia porcellus, UniProt Q2NNR5).
T1 construct: An isolated guinea pig ileum was cut into about 2 cm lengths; from tissue; host or cells: guinea pig ileum
T1 sequence (Q2NNR5 1-340): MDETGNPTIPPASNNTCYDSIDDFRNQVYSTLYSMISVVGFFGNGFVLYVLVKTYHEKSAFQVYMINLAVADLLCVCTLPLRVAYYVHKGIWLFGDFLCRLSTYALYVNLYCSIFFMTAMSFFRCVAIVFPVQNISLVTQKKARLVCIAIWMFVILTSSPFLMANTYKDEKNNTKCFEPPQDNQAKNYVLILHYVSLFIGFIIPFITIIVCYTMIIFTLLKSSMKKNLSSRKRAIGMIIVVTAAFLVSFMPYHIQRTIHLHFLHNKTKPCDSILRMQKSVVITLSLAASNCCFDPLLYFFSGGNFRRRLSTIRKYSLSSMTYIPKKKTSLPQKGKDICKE
As to the kind of experiment: Anti-LTD4 action on isolated guinea pig ileum (LTD4 contraction). Type of data set: cell-based. To be noted: 10^-5 M test compound; contraction caused by 10^-8 M LTD4; read-out: Anti-LTD4 action (inhibition rate). The method, then:
Antihistaminic Action and Anti-LTD4 Action (In vitro Tests)
An isolated guinea pig ileum was cut into about 2 cm lengths. Each ileum piece was suspended in a 20-ml container filled with the Tyrode's buffer. An isotonic contractive response by histamine or LTD4 was recorded on a recorder. The Tyrode's buffer was controlled at 30° C., through which a mixed gas (95%O2 -5%CO2) was bubbled.

Data set [2] addresses T2, H1 receptor (Cavia porcellus, UniProt P31389).
T2 construct: guinea pig cerebromembranous protein and a test compound; from tissue; host or cells: guinea pig brain membranes
The experiment in a line: H1 Receptor Binding Inhibition Test ([3H]mepyramin, guinea pig cerebromembranous protein). To be noted: read-out: H1 receptor dissociation constant (KD). The method, then:
H1 Receptor Binding Inhibition Test
An ice-cold phosphate buffer was added to terminate the reaction, followed by immediate filtration through a Wattman CF/C filter. The filter was washed twice with 20 ml aliquots of the ice-cold buffer. The radio-activity of the residue was measured by a liquid scintillation counter. From a measurement value obtained without the addition of the test compound and measurements values obtained upon addition of the test compound at various concentrations, the dose-response of the inhibitory action of the test compound was measured and the 50% inhibitory concentration (IC50) was determined. Using the Cheng-Prusoff formula, a dissociation constant (KD) was calculated from the 50% inhibitory concentration (IC50).
In a binding assay, 10^4 M R(-)dimethindene was used for the measurement of a nonspecific binding.

In data set [3] the target is T3, LTD4 receptor (Cavia porcellus, UniProt Q2NNR5).
T3 construct: guinea pig pulm-omembranous protein and a test compound; from tissue; host or cells: guinea pig lung membranes
T3 sequence (Q2NNR5 1-340): T1 sequence (Q2NNR5 1-340)
As to the kind of experiment: LTD4 Receptor Binding Inhibition Test ([3H]LTD4, guinea pig pulmomembranous protein). The conditions noted are these: read-out: LTD4 receptor dissociation constant (KD). The method, then: LTD4 Receptor Binding Inhibition Test
An ice-cold tris hydrochloride/sodium chloride buffer (10 mM/100 mM, pH 7.5) was added to terminate the reaction, followed by immediate filtration through a Wattman CF/C filter. The filter was washed twice with 20 ml aliquots of the ice-cold buffer. The radioactivity of the residue was measured by a liquid scintillation counter.
In a binding assay, […] LTD4 was used for the measurement of a nonspecific binding.

Data set [4] deals with T4, H1 (Mus musculus, UniProt P70174).
T4 construct: from tissue; host or cells: mouse brain homogenate, ex vivo after intraperitoneal dosing
The experiment in a line: Brain Penetration Test (ex vivo [3H]mepyramin binding in mouse brain). To be noted: ip; for ED50: peritoneal administration to mouse, brain taken 1 hour after, [3H]mepyramin 0.5 nM, read-out: IC50 (50% inhibitory dose), ex vivo; for selectivity ratio at 1 h: mouse, brain, IC50 (mg/kg)/H1 binding inhibition dissociation constant (nM), read-out: BP index. On the procedure:
Described specifically, to a mouse of 20 g to 23 g, a test compound of a given concentration was peritoneally administered. Upon elapsed time of one hour after the administration, the mouse was sacrificed. The brain tissue was taken out, and was then homogenated with a 30 mM Na,K phosphate buffer (pH 7.5) to give 40 ml/g wet weight. […] Subsequent to incubation at 37° C. for 50 minutes, an ice-cold phosphate buffer was added to terminate the reaction. Each of the resulting mixtures was immediately filtered through Wattman CF/C filter. The filter was washed twice with 20 ml aliquots of the ice-cold buffer. The radioactivity of the residue was measured by a liquid scintillation counter. […] A BP index as an index of brain penetration was calculated in accordance with the following formula:
BP index=IC50 (mg/kg)/H1 binding inhibition dissociation constant (nM)

T2 sequence (P31389 whole entry): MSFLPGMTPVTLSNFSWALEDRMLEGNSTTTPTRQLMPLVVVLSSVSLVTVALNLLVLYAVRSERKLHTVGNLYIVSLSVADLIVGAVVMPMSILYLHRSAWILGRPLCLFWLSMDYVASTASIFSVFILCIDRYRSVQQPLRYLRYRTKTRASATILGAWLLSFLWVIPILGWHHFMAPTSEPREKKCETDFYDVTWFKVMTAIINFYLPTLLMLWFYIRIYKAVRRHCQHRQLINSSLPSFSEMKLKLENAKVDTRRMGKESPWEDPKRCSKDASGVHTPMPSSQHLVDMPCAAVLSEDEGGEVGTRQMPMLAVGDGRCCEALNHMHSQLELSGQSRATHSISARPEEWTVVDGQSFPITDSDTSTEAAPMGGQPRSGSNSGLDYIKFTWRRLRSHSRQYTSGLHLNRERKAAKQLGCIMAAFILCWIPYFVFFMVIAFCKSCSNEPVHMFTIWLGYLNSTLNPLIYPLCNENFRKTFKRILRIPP
T4 sequence (P70174 whole entry): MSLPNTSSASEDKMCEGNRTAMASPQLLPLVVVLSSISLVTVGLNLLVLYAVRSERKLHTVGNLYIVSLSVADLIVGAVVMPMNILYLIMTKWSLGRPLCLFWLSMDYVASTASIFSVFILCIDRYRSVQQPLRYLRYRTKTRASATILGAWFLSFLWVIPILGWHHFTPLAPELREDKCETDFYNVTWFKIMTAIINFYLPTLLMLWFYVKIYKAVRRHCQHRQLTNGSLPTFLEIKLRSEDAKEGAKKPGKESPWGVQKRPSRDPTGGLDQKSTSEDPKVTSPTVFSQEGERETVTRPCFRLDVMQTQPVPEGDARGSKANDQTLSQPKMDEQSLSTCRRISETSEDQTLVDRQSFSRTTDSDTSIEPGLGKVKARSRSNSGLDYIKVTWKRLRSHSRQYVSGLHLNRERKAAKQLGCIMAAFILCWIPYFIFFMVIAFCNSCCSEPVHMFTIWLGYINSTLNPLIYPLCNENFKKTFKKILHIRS

Turning to `O=c1ccc2ccc(OCCN3CCCN(Cc4ccc5ccccc5n4)CC3)cc2[nH]1` [Example 79, 7-{2-[4-(2-Quinolylmethyl)-1-homopiperazinyl]ethoxy}-1,2-dihydroquinolin-2-one], the inhibition at 10 µM in data set [1] came out at 19%. The Ki is 75.9 nM in data set [2] and 8610 nM in data set [3].

Consider `Cn1c(CN2CCCN(CCOc3ccc4ccc(=O)[nH]c4c3)CC2)nc2ccccc21` [Example 80, 7-{2-[4-(N-Methylbenzoimidazol-2-ylmethyl)-1-homopiperazinyl]ethoxy)-1,2-dihydroquinolin-2-one], for which the inhibition at 10 µM in data set [1] was found to be 11%. Further, the Ki in data set [2] was 4.31 nM; in data set [3], 18400 nM.

`CC1(C)C(=O)Nc2cccc(OCCCN3CCCN(Cc4ccc5ccccc5n4)CC3)c21` [Example 85, 3,3-Dimethyl-4-{3-[4-(2-quinolylmethyl)-1-homopiperazinyl]propoxy}-2,3-dihydro-1H-indol-2-one]: the inhibition at 10 µM in data set [1] was determined as 21%. Besides, the Ki in data set [2] was 18.3 nM; in data set [3], 35700 nM.

Turning to `O=C1CSc2cc(OCCCN3CCN(Cc4ccc5ccccc5n4)CC3)ccc2N1` [Example 90, 7-{3-[4-(2-quinolylmethyl)piperazinyl]propoxy}-3,4-dihydro-2H-1,4-benzothiazin-3-one], in data set [1], the inhibition at 10 µM stood at 16%. Besides, in data set [2], the Ki amounted to 5.01 nM. Also, the Ki in data set [3] was found to be 9410 nM. Besides, in data set [4], the ED50 is 8.5 mg/kg and the selectivity ratio at 1 h was determined as 1.7.

For the compound `Cc1ccc(OCCCN2CCN(Cc3ccc4ccccc4n3)CC2)c2c1NC(=O)CC2` [Example 91, 8-methyl-5-{3-[4-(2-quinolylmethyl)piperazinyl]propoxy}-1,2,3,4-tetrahydroquinolin-2-one], in data set [4], the ED50 amounted to 10 mg/kg and the selectivity ratio at 1 h is 35.7.

Take `Cc1ccc(OCCCN2CCN(Cc3ccc4ccccc4n3)CC2)c2c1NC(=O)C2(C)C` [Example 92]: the inhibition at 10 µM in data set [1] came to 42%. The Ki in data set [2] came out at 55.7 nM. Further, the Ki in data set [3] worked out at 4230 nM. For the same compound, in data set [4], the ED50 stood at 16.5 mg/kg and the selectivity ratio at 1 h was found to be 0.29.
